Laboratory results reported in publication PMC11745346 (Proceedings of the National Academy of Sciences of the …, 2024).

Target: Kv1.1 (Homo sapiens, UniProt Q09470)
Experiment: two-electrode voltage clamp in Xenopus oocytes, reference opener
Assay type: cell-based

Sequence of Kv1.1 (Q09470 whole entry): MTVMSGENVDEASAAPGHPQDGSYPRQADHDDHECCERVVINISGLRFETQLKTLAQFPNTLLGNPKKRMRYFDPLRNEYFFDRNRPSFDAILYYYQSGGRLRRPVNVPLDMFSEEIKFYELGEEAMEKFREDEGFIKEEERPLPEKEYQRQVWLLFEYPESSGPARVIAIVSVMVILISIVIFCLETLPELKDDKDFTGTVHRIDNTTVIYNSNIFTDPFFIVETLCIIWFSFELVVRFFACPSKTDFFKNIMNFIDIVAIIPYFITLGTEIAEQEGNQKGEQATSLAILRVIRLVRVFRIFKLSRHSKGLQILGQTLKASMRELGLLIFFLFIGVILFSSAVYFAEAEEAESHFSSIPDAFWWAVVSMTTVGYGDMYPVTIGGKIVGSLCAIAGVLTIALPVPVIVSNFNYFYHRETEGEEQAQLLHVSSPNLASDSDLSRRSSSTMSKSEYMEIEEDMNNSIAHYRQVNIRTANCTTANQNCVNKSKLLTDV

## O=C(O)c1cccnc1Nc1cccc(C(F)(F)F)c1 [niflumic acid]
  EC50: 347 µM
